1 molecule from PMC7701510, “Identification of HN252 as a potent inhibitor of protein phosphatase PPM1B” (Journal of Cellular and Molecular Medicine, 2020) can be followed below.

Each structure is given as a SMILES string. Substitutions are numbered along the chain they refer to. Entries after “also recorded” stand apart in the source; their conditions may differ.

The subject of assay [1] is HL7702 cells with PPM1B shRNA. The experiment in a line: Western blot of protein phosphorylation in PPM1B knockdown cells with HN252. As to conditions: HN252 5 μM, 2 h, at 30 h after transfection.
Method: Cells were lysed in lysis buffer (50 mM Tris‐HCl, 150 mM NaCl, 0.1% SDS, 1% NP‐40, 0.5% deoxycholate, pH 7.4), supplemented with protease inhibitor (Roche) and phosphatase inhibitor cocktails (Roche). Protein samples were separated by SDS‐PAGE and wet‐transferred to PVDF membranes (Millipore). The membrane was blocked for 1 h in 5% BSA in TBST at room temperature and probed with the appropriate primary antibodies and with an HRP‐conjugated secondary antibody.
The target of assay [2] is T1, PPM1B (Homo sapiens, UniProt O75688).
T1 construct: inferred from pET-28a vector and Ni-NTA purification; made in house; host or cells: Escherichia coli BL21
T1 sequence (O75688 1-479): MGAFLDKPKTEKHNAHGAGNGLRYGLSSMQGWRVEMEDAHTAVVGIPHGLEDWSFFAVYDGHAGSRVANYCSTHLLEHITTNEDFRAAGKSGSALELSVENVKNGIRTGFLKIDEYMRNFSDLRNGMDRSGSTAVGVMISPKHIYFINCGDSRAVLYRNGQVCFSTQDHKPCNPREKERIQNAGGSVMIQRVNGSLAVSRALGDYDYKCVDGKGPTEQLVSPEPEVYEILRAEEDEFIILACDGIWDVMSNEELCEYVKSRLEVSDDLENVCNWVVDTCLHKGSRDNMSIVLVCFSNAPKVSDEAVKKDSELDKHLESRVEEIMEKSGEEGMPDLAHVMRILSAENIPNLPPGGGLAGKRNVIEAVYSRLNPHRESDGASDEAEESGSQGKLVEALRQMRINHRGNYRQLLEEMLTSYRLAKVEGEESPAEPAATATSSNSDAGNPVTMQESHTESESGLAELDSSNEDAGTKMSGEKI
Put plainly: Fluorescence quenching assay (fluorescence titration). In kind it is binding. The following applies: PPM1B 8 μM, 25°C, excitation 280 nm, emission 332 nm; read-out: dissociation constant Kd. On the procedure:
The interaction between PPM1B recombinant proteins and compound HN252 was determined by fluorescence titration as previously described. ^20 PPM1B proteins were dialysed against PBS and incubated with different concentrations of HN252. The fluorescent quenching was conducted at 25°C, and fluorescence spectra were recorded by Cytation 5 Multi‐Mode Plate Reader (BioTek) using excitation at 280 nm and emission at 332 nm. The dissociation constant (Kd) of HN252 to PPM1B was calculated as previously described. ^20

In assay [3] the target is T1, PPM1B. Put plainly: pNPP hydrolysis phosphatase kinetic assay. In kind it is biochemical. On the procedure:
(§1) Escherichia coli BL21 strain was transformed with pET‐28a bacterial expression vector harbouring PPM1B and its mutants. ^17 The fusion proteins were induced to be expressed with 0.5 mM isopropyl‐β‐D‐thiogalactoside (IPTG) and purified from bacterial lysate by Ni‐NTA chromatographic matrices (Qiagen) and AKTA FPLC (GE Healthcare Life Sciences) using a Superdex Increase 200 column.
(§2) The kinetic assays of PPM1B were carried out at 37°C in 0.1 M acetic acid buffer (50 mM Tris, 40 mM Mn^2+, pH 7.0). The p‐nitrophenyl phosphate (pNPP, Sigma) was used as the substrate which could be conveniently measured at 405 nm. Reactions were started by addition of pNPP to a reaction mixture containing PPM1B (0.4 μM PPM1B, final concentration) and various concentrations of HN252 and stopped by addition of 0.5 M EDTA (pH 10.0) after an appropriate time. The Km value of PPM1B towards pNPP hydrolysis (3.6 mM for pNPP) was used to determine the IC50. The IC50 values, the inhibition constant Ki and inhibition pattern were evaluated as previously described. ^18 The kinetic assays of HN252 towards to other protein phosphatases were carried out as previously described. ^19

Assay [4] deals with T2, PPM1B-R33K (Homo sapiens, UniProt O75688, R33K).
T2 construct: inferred from pET-28a vector and Ni-NTA purification; made in house; host or cells: Escherichia coli BL21
T2 sequence (O75688 1-479 R33K): T1 sequence (O75688 1-479) with R33K
Put plainly: pNPP hydrolysis assay with PPM1B mutant. In kind it is biochemical. As to conditions: pNPP substrate, pH 7.0, 37°C. As to the method: as §1, §2

The target of assay [5] is T3, PPM1B-K170A (Homo sapiens, UniProt O75688, K170A).
T3 construct: inferred from pET-28a vector and Ni-NTA purification; made in house; host or cells: Escherichia coli BL21
T3 sequence (O75688 1-479 K170A): T1 sequence (O75688 1-479) with K170A
Put plainly: pNPP hydrolysis assay with PPM1B mutant. In kind it is biochemical. As to conditions: pNPP substrate, pH 7.0, 37°C. On the procedure: as §1, §2

Regarding `Nc1cc(-c2ccc(-c3ccc(O)c(O)c3)cc2)ccc1C(=O)O` [HN252], the “effect on phosphorylation of AMPKα, CDK2 and p38” value in assay [1] is “mild effect”. Moreover, in assay [2], the Kd – broadly, the free concentration of one partner at which half of the binding sites on the other are occupied at equilibrium, for simple one-to-one binding – came to 42.3 ± 6.47 µM. For the same molecule, the inhibition pattern result in assay [3] (Lineweaver-Burk plot, pNPP hydrolysis, pH 7.0, 37°C) is reported as “competitive inhibition; also recorded: classical competitive inhibitor”. Further, the Ki (as a rule, a dissociation constant, usually derived from enzyme kinetics or from competition with a known ligand) in assay [3] (Lineweaver-Burk, pNPP, pH 7.0, 37°C, 0.4 μM PPM1B, 40 mM Mn2+) stood at 0.52 ± 0.06 µM. In addition, the IC50 (usually the concentration at which inhibition is half-maximal) in assay [3] (pNPP substrate, 0.4 μM PPM1B, 40 mM Mn2+, pH 7.0, 37°C, wild type) is 0.76 µM; in assay [4], 58.6 ± 10 µM; in assay [5], 30.1 ± 5.7 µM. The “selectivity: increase in potency against PPM1B than other PSPs” value in assay [3] (versus PPM1F, PPM1G, PPM1K, PHLPP2, PPM1A a notable exception) is recorded as “about 30 fold”.
